From patent US6949584B2, “TNP-470 species, polymer conjugates and use thereof” (Children's Medical Center Corporation, priority 2002, dated 2005)
“And” between values parts separate entries of the source, which are not always exact repeats. Equal values may be shown once. “Also recorded” adds a separate entry of the source.

Experiments:
chick aortic ring = assay: Chick aortic ring endothelial sprouting assay; format: cell-based; details: Matrigel
Description: Aortic arches were dissected from day-14 chick embryos, cut into cross-sectional fragments, and implanted in vitro in Matrigel using a modification of methods previously described (V. Muthukkaruppan, personal communication). When cultured in MCDB-131 medium supplemented with 5% fetal bovine serum, endothelial cells sprouted and vascular channel formation occurred within 24-48 hours.

[1] = Rotorod test and body weight, 5 weeks treatment
in vivo = details: male, C57BL/6J, mouse, 30 mg/kg
A2058 human melanoma = assay: Antitumor activity, SCID mice bearing s.c. A2058 human melanoma; format: in vivo; details: for T/C (mean tumor volume treated / untreated control) / survival: 30 mg/kg TNP-470 equivalent
From the text: Each group consisted of 5 mice. […] 500 mm^3.

liver regeneration = assay: Hepatectomy (liver regeneration) model; format: in vivo, C57BL/6J mice; details: for average liver size on post-operative day 8: 30 mg/kg q.o.d. s.c., controls regenerate to ~1.2 g
Description: Male C57BL/6J mice underwent a partial hepatectomy through a midline incision after general anesthesia with isoflourane^33. Free or conjugated TNP-470 (30 mg/kg) were given s.c. every other day for 8 days beginning on the day of surgery according to the scheme described in FIG. 4a. Alternatively, the doses given were 60 mg/kg the day of surgery and 4 days later or 120 mg/kg once on the day of the partial hepatectomy. The liver was harvested on the 8th day, weighed and analyzed by histology.
This non-neoplastic model is a relatively fast (8 days) in vivo angiogenesis-dependent process^33.

A2058 melanoma cells = assay: Serum-induced A2058 cell proliferation
Description: The dotted line represents the proliferation of bFGF-induced BCE or serum-induced A2058 cells (—) and the […] represents the BCE and A2058 cell proliferation in the absence of bFGF or serum, respectively ( - - - ).
BCE cells were obtained and grown as previously described^48. For the proliferation assay, cells were washed with PBS and dispersed in a 0.05% trypsin solution. […] The media was replaced with 0.25 ml of DMEM, 5% BCS and 1% GPS and the test sample applied. […] After 30 min of incubation, media and bFGF were added to obtain a final volume of 0.5 ml of DMEM, 5% BCS, 1% GPS and 1 ng/ml bFGF. Control cells were grown with or without bFGF. After 72 hr, cells were dispersed in trypsin, resuspended in Hematall (Fisher Scientific, Pittsburgh, Pa.), and counted in a Coulter counter.

LLC [2] = assay: Antitumor activity, C57BL/6J mice bearing s.c. LLC; details: for survival: 30 mg/kg q.o.d. TNP-470 equivalent; for tumor growth inhibition: day 8, 30 mg/kg q.o.d., treatment started at 100 mm^3; for T/C: day 8, treatment started at 500 mm^3
From the text: Male C57BL/6J mice (˜8 weeks, ˜20 g) were inoculated with 5×10^6 viable LLC or A2058 melanoma cells s.c. The tumors were allowed to grow to a volume of approximately 100 mm^3. […] Each group consisted of 5 mice. Mice were euthanized when tumors reached or surpassed a size equivalent to 30% of their body weight. Animals were weighed daily and observed for signs of tumor progression and euthanized if their body weight decreased below 80% of their starting weight. Animals were monitored for general health, weight loss, and tumor progression. At termination, mice underwent post-mortem examination and tumors were dissected and weighed. […] The same dosing schedule was repeated with white SCID male mice (˜8 weeks, 20 g) inoculated with 5×10^6 viable A2058 human melanoma cells s.c. and treated as described above.

[3] = test system: murine, human and metastatic tumors; details: cited from earlier work
LLC [4] = details: at doses of 60 and 90 mg/kg/q.o.d., stated as known; cited from earlier work
Early mouse development = details: injected into 7 and 17 day-old mice
[5] = clinical pharmacokinetics, in words; cited from earlier work
cathepsin B = cathepsin B (Homo sapiens, UniProt P07858); details: incubation with cathepsin B, pH 5.5, 37° C.
From the text: These conditions imitate the lysosomal environment in endothelial cells where lysosomal enzymes, such as cathepsin B, are present.

[6] = 30 mg/kg q.o.d. s.c. for 5 weeks
[7] = in mice, mostly 30 mg/kg subcutaneously every other day

With `CO[C@@H]1[C@H](OC(=O)NC(=O)CCl)CC[C@]2(CO2)[C@H]1[C@@]1(C)O[C@@H]1CC=C(C)C` [TNP-470, O-(chloracetyl-carbamoyl) fumagillol] the “concentration that completely prevented outgrowth” value (chick aortic ring) was 100 pg/mL, the “concentration that reduced the number and length of vascular sprouts” value (chick aortic ring) was 50 pg/mL and the body weight [1, 6] was “lost weight”. For the same molecule, the “time remaining on the rotating rod” value [1, 6] was “significantly shorter times”, the neurohistological alterations ([1]; data not shown) was “no visible neurohistological alterations” and the concentration at 1 h (in vivo) was 0.9 ng/mL. The concentration at 2 h (in vivo) was 1.7 ng/mL, the TNP-470 in serum (after the 2 h time point) was “no detectable” and the “free TNP-470 concentrations in tumor specimens” value (any sample time point) was “no detectable concentrations”. For the same molecule, the water solubility (Water solubility) was “not water-soluble”, the “T/C (mean tumor volume treated / untreated control)” value (A2058 human melanoma) was 0.34 and the survival (A2058 human melanoma) was “increased survival”. The “average liver size on post-operative day 8” value (liver regeneration) was 0.7 g, the “inhibition of liver regeneration” value (liver regeneration; 30 mg/kg/q.o.d s.c.) was “inhibited liver regeneration” and the “inhibition of liver regeneration” value (liver regeneration; 60 mg/kg every four days) was “did not inhibit liver regeneration”. For the same molecule, the “inhibition of liver regeneration” value (liver regeneration; single injection of 120 mg/kg on the day of hepatectomy, 120 mg/kg) was “did not inhibit liver regeneration”, the “concentration at which inhibition of serum-induced proliferation (cytostatic effect) begins” value (A2058 melanoma cells; 72 h) was no less than 10 ng/mL and the “doses with cytotoxic effect” value (A2058 melanoma cells; 72 h) was “higher than 100 μg/ml”. The “potency on endothelial cells relative to tumor cells” value (A2058 melanoma cells; BCE versus A2058 / tumor cells) was 4 logs and 3 logs, the survival (LLC [2]) was “increased survival” and the tumor growth inhibition (LLC [2]) was 67%. The “inhibition of growth of human tumors” value [3, 7] was “up to 100%”, the “inhibition of growth of metastatic tumors” value [3, 7] was “up to 100%” and the “inhibition of growth of murine tumors” value ([3]; mostly 30 mg/kg subcutaneously every other day) was “up to 91%”. For the same molecule, the “body weight of animals receiving the drug” value ([3]; with few exceptions) was “weight loss or failure to gain weight”, the “toxicity to the mice” value (LLC [4]) was “toxic” and the “effect on normal development (weight gain) of newborn mice” value (Early mouse development) was “causes delay in newborn mice development; also recorded: inhibited growth”.

For `COc1cccc2c1C(=O)c1c(O)c3c(c(O)c1C2=O)C[C@@](O)(C(=O)CO)C[C@@H]3O[C@H]1C[C@H](N)[C@H](O)[C@H](C)O1` [doxorubicin], the t1/2a [5] is given as “a few minutes”.

In the case of “HPMA copolymer-Gly-Phe-Leu-Gly (SEQ ID NO: 1)-ethylenediamine-TNP-470 [HPMA copolymer-TNP-470]”, the “concentration that completely prevented outgrowth” value (chick aortic ring) is reported as 100 pg/mL, the “concentration that reduced the number and length of vascular sprouts” value (chick aortic ring) is reported as 50 pg/mL and the “time until TNP-470 release from the conjugate reached a plateau” value (cathepsin B) is reported as no more than 5 h. The “T/C (mean tumor volume treated / untreated control)” value (A2058 human melanoma) was 0.12, the survival (A2058 human melanoma) was “increased survival” and the “T/C values for the conjugate” value (A2058 human melanoma; summary statement in the conclusions, model not named) was 0.12-0.14. For the same molecule, the “average liver size on post-operative day 8” value (liver regeneration) was 0.7 g, the “inhibition of liver regeneration” value (liver regeneration; 30 mg/kg/q.o.d s.c.) was “inhibited liver regeneration” and the “inhibition of liver regeneration” value (liver regeneration; 60 mg/kg every four days, listed as Conjugated TNP-470) was “inhibited liver regeneration”. For the same molecule, the “inhibition of liver regeneration” value (liver regeneration; 60 mg/kg every four days, listed as HPMA copolymer-TNP-470 conjugate) was “equivalent effect as the 30 mg/kg q.o.d. dosing schedule”, the “inhibition of liver regeneration” value (liver regeneration; single injection of 120 mg/kg on the day of hepatectomy, listed as Conjugated TNP-470, 120 mg/kg) was “inhibited liver regeneration” and the “inhibition of liver regeneration” value (liver regeneration; single injection of 120 mg/kg on the day of hepatectomy, listed as HPMA copolymer-TNP-470 conjugate, 120 mg/kg) was “equivalent effect as the 30 mg/kg q.o.d. dosing schedule”. For the same molecule, the survival (LLC [2]) was “increased survival”, the T/C (LLC [2]; 30 mg/kg/q.o.d) was 0.4 and the T/C (LLC [2]; 60 mg/kg/q.o.d) was 0.4. It also gave a T/C (LLC [2]; 90 mg/kg/q.o.d) of 0.24 and a tumor growth inhibition (LLC [2]) of 86%.
